Experimental findings from patent US20230357179A1, “RAF KINASE INHIBITORS AND METHODS OF USE THEREOF” (Deciphera Pharmaceuticals, LLC, priority 2021, published 2023) are described below.

Molecules are shown by their SMILES.

What all share (format): cell-based
In one assay the test system is WM3629 cells. The assay can be described thus: WM3629 cell proliferation assay (1), resazurin, 96-well. The note with it: inhibition of cell proliferation. Here is the method:
WM3629 Cell Proliferation Assay (1)
WM3629 cells (#WM3629-01-0001) are obtained from Rockland Immunochemicals Inc (Gilbertsville, PA). Briefly, cells were grown in MCDB 153 medium (Sigma, #M7403, St. Louis, MO) supplemented with 20% Leibovitz's L-15 (ThermoFisher #11415-064, Waltham, MA), 2% heat inactivated fetal bovine serum (ThermoFisher, #A3840001, Waltham, MA), 5 μg/mL Insulin (Bovine Pancreas) (Sigma, #I0516, St. Louis, MO), 1.68 mM Calcium Chloride (Sigma, #C-34006, St. Louis, MO) and 1% Penicillin/Streptomycin/L-Glutamine (ThermoFisher #10378016, Waltham, MA) at 37° C., 5% CO2, and 95% humidity. Cells are expanded until reaching 70-95% confluency at which point they are subcultured or harvested for assay use. A serial dilution of test compound is dispensed into a 96-well black clear bottom plate in triplicate. Four thousand five hundred cells are added per well in 200 μL complete growth medium in the 96-well plate. Plates are incubated for 67-72 hours at 37° C., 5% CO2, and 95% humidity. At the end of the incubation, 40 μL of a 440 μM solution of resazurin (Sigma, #199303, St. Louis, MO) in PBS is added to each well of the plate and plates are incubated for an additional 6-7 hours at 37° C., 5% CO2, and 95% humidity. Plates are read on a Synergy2 or equivalent reader (Biotek, Winooski VT) using an excitation of 540 nm and an emission of 600 nm. Data is analyzed using Prism software (GraphPad, San Diego, CA) to calculate IC50 values.

A further assay deals with Miapaca-2 cells. The assay is described as follows: MiaPaca-2 combination cell proliferation assay (1) with cobimetinib, 96-well. The note with it: inhibition of cell proliferation, read-out: MiaPaca-2 Combo (1) IC50. Here is the method:
MiaPaca-2 Combination Cell proliferation Assay (1)
Miapaca-2 cells (catalog #CRL-1420) are obtained from the American Type Culture Collect (ATCC, Manassas, VA). Briefly, cells were grown in DMEM supplemented with 10% characterized fetal bovine serum (Invitrogen, Carlsbad, CA), 2.5% New Zealand sourced horse serum and 1% Penicillin/Streptomycin/L-Glutamine at 37° C., 5% CO2, and 95% humidity. Cells are expanded until reaching 70-95% confluency at which point they are subcultured or harvested for assay use. A serial dilution of test compound was dispensed into multiple 96-well black clear bottom plates in triplicate. A serial dilution of complete growth medium containing cobimetinib was prepared at twice the final concentration and 100 μL was dispensed across the test compound titration in triplicate. Three thousand cells are added per well in 100 μL complete growth medium in each 96-well plate. Plates are incubated for 67-72 hours at 37° C., 5% CO2, and 95% humidity. At the end of the incubation, 40 μL of a 440 μM solution of resazurin (Sigma, St. Louis, MO) in PBS is added to each well of the plate and plates are incubated for an additional 5-7 hours at 37° C., 5% CO2, and 95% humidity. Plates are read on a Synergy2 or equivalent reader (Biotek, Winooski VT) using an excitation of 540 nm and an emission of 600 nm. Drug synergy was assessed via BLISS analysis in the Combenefit software (Cancer Research UK Cambridge Institute, Cambridge, UK). Data is analyzed using Prism software (GraphPad, San Diego, CA) to calculate IC50 values. Shifts in test compound IC50 values are reported from top-constrained combination therapy curves.

The test system of the next assay is A375 cells. The assay is described as follows: A375 cell proliferation assay (2), resazurin, 384-well. The note with it: Homo sapiens, A-375, inhibition of cell proliferation, 67-72 h. Here is the method:
A375 Cell Proliferation Assay (2)
A375 cells (catalog (#CRL-1619) are obtained from the American Type Culture Collect (ATTC, Manassas, VA). Briefly, cells were grown in DMEM High Glucose supplemented with 10% characterized fetal bovine serum (Invitrogen, Carlsbad, CA) and 1% Penicillin/Streptomycin/L-Glutamine at 37° C., 5% CO2, and 95% humidity. Cells are expanded until reaching 70-95% confluency at which point they are sub-cultured or harvested for assay use. Using the Beckman Coulter Echo 650, a serial dilution of test compound is dispensed into a 384-well black clear bottom plate in triplicate. Six hundred twenty-five cells are added per well in 50 μL complete growth medium in the 384-well plate. Plates are incubated for 67-72 h at 37° C., 5% CO2, and 95% humidity. At the end of the incubation, 10 μL of a 440 μM solution of resazurin (Sigma, St. Louis, MO) in PBS is added to each well of the plate and plates are incubated for an additional 3-6 h at 37° C., 5% CO2, and 95% humidity. Plates are read on a Synergy2 or equivalent reader (Biotek, Winooski VT) using an excitation of 540 nm and an emission of 600 nm. Data is analyzed using Prism software (GraphPad, San Diego, CA) to calculate IC50 values.

The test system of another assay is H2405 cells. The assay is described as follows: H2405 cell proliferation assay (2), resazurin, 384-well. The note with it: Homo sapiens, NCI-H2405, inhibition of cell proliferation, 67-72 h. As to the method: H2405 Cell Proliferation Assay (2)
H2405 cells (catalog #CRL-5994) are obtained from the American Type Culture Collect (ATTC, Manassas, VA). Briefly, cells were grown in RPMI 1640 supplemented with 5% characterized fetal bovine serum (Invitrogen, Carlsbad, CA) and 1% Penicillin/Streptomycin/L-Glutamine at 37° C., 5% CO2, and 95% humidity. Cells are expanded until reaching 70-95% confluency at which point they are sub-cultured or harvested for assay use. A serial dilution of test compound is dispensed into a 384-well black clear bottom plate in triplicate. Seven hundred fifty cells are added per well in 50 μL complete growth medium in the 384-well plate. Plates are incubated for 67-72 h at 37° C., 5% CO2, and 95% humidity. At the end of the incubation, 10 μL of a 440 μM solution of resazurin (Sigma, St. Louis, MO) in PBS is added to each well of the plate and plates are incubated for an additional 5-6 h at 37° C., 5% CO2, and 95% humidity. Plates are read on a Synergy2 or equivalent reader (Biotek, Winooski VT) using an excitation of 540 nm and an emission of 600 nm. Data is analyzed using Prism software (GraphPad, San Diego, CA) to calculate IC50 values

For the molecule `Cc1ccc(NC(=O)N2CC[C@@H](C(F)(F)F)C2)cc1-c1cccc(-c2cc(NC(=O)C3CC3)ncn2)c1` [Example 201], the IC50 in the assay on WM3629 cells is at most 100 nM; with Miapaca-2 cells, 100 to 500 nM.
The like results for `Cc1ccc(NC(=O)N2CC[C@H](C(F)(F)F)C2)cc1-c1cccc(-c2cc(NC(=O)C3CC3)ncn2)c1` [Example 200] were, in that order, at most 100 nM and 100 to 500 nM.
Regarding `Cc1ccc(NC(=O)N2CC[C@H](C(C)C)C2)cc1-c1cncc(-c2cc(NC(=O)C3CC3)ncn2)c1` [Example 221], in the assay on WM3629 cells, the IC50 was at most 100 nM.
As to `CC(=O)Nc1cc(-c2cc(-c3cc(NC(=O)NCCC4(C)CC4)c(F)cc3C)cc(OCCO)n2)ccn1` [Example 33], the IC50 in the assay on Miapaca-2 cells is at most 100 nM.
Regarding `Cc1cc(F)c(NC(=O)NCCC2(C(F)(F)F)CC2)cc1-c1cc(OCCO)nc(C2CCOCC2)c1` [Example 24], in the assay on Miapaca-2 cells, the IC50 is at most 100 nM.
Turning to `Cc1ccc(NC(=O)N2CC[C@H](C(F)(F)F)C2)cc1-c1cncc(-c2cc(NC(=O)C3CC3)ncn2)c1` [Example 195], the IC50 in the assay on A375 cells is 100 to 500 nM; in the assay with H2405 cells, at most 100 nM.
As to `CC(=O)Nc1cc(-c2cc(-c3cc(NC(=O)NCCC4(C)CC4)c(F)cc3C)cc(C)n2)ccn1` [Example 55], the IC50 in the assay with Miapaca-2 cells was at most 100 nM.
On the same count and under the same terms, under `CC(=O)Nc1cc(-c2cc(-c3cc(NC(=O)NC4CCC(F)(F)CC4)c(F)cc3C)cc(OCCO)n2)ccn1` [Example 63] stands at most 100 nM.
Regarding `Cc1cc(F)c(NC(=O)N2CC[C@H](C(F)(F)F)C2)cc1-c1cncc(-c2cc(NC(=O)C3CC3)ncn2)c1` [Example 216], the IC50 in the assay with A375 cells was 100 to 500 nM; in the assay on H2405 cells, at most 100 nM.
As to `Cc1cc(F)c(NC(=O)NCCC2(C)CC2)cc1-c1cc(OCCO)nc(-c2ccnc(NC(=O)C3CC3)c2)c1` [Example 76], in the assay with Miapaca-2 cells, the IC50 fell in the range of 100 to 500 nM.
Take `Cc1ccc(NC(=O)N2CC[C@@H](C(C)C)C2)cc1-c1cncc(-c2cc(NC(=O)C3CC3)ncn2)c1` [Example 217]: in the assay on WM3629 cells, the IC50 is at most 100 nM.
